Test results as given in ChEMBL document CHEMBL1938327, “Thiazolides as novel antiviral agents. 2. Inhibition of hepatitis C virus replication” (J Med Chem, 2011).

How the values were obtained:
Hepatitis C virus [1] = experiment: Antiviral activity against HCV genotype 1b infected in Ava5 cells assessed as inhibition of viral replication after 3 days by blot hybridization analysis; assay type: functional, organism-based, Hepacivirus hominis; conditions: Ava5, 72 h
[2] = Cytotoxicity against human Ava5 cells after 3 days by neutral red dye assay; assay type: cell-based
[3] = Selectivity index, ratio of CC50 for human Ava5 cells to EC50 for HCV genotype 1b infected in human Ava5 cells
Hepatitis C virus [4] = experiment: Antiviral activity against HCV genotype 1a infected in Huh7.5 cells assessed as inhibition of viral replication after 3 days by blot hybridization analysis; assay type: functional, organism-based, Hepacivirus hominis; conditions: subtype 1a, Huh7.5, 72 h
[5] = Cytotoxicity against human Huh7.5 cells after 3 days by neutral red dye assay; assay type: cell-based, Huh-7
[6] = Toxicity in po dosed dog; assay type: organism-based, Canis lupus familiaris; conditions: in vivo
Rattus norvegicus = organism: Rattus norvegicus; experiment: Toxicity in rat; assay type: organism-based; conditions: in vivo
[7] = Selectivity index, ratio of CC50 for human Huh7.5 cells to EC50 for HCV genotype 1a infected in human Huh7.5 cells; set-up: species or system Huh-7
[8] = Aqueous solubility of the compound; assay type: physicochemical; conditions: buffer
Canis familiaris [9] = experiment: Drug metabolism in dog assessed as deactyl derivative formation at 1 mg/kg, iv after 1 hr; assay type: ADME, organism-based, Canis lupus familiaris; set-up: dose 1 mg/kg, route intravenous; conditions: in vivo
Canis familiaris [10] = experiment: Drug metabolism in dog assessed as glucurono-conjugate formation at 1 mg/kg, iv after 2 hrs; assay type: ADME, organism-based, Canis lupus familiaris; set-up: dose 1 mg/kg, route intravenous; conditions: in vivo

Compound | EC50 (Hepatitis C virus [1]) [µM] | EC90 (Hepatitis C virus [1]) [µM] | CC50 at 72 h [2] [µM] | Ratio CC50/EC50 [3] | EC50 (Hepatitis C virus [4]) [µM] | EC90 (Hepatitis C virus [4]) [µM] | CC50 at 72 h [5] [µM] | MTD [6] [mg/kg] | Activity (Rattus norvegicus) | Ratio CC50/EC50 [7] | solubility [8] | Drug metabolism (Canis familiaris [9]) | Drug metabolism (Canis familiaris [10])
COC(=O)c1ccc(NC(=O)c2ccccc2OC(C)=O)cc1 | 0.06 | 0.46 | 4.4 | 76 |  |  |  |  |  |  |  |  | 
Cc1cccc(C(=O)Nc2ncc(Br)s2)c1O | > 1.9 | > 10 | 15 | 11 | > 10 | > 10 | 25 | < 25 | Toxic |  |  |  | 
Cc1nc(NC(=O)c2ccccc2O)sc1Br | > 10 | > 10 | 15 |  |  |  |  |  |  |  |  |  | 
CS(=O)(=O)c1csc(NC(=O)c2ccccc2O)n1 | 0.5 | 1.7 | 85 | 170 |  |  |  |  |  |  |  |  | 
CC(=O)Oc1ccccc1C(=O)Nc1ncc(Cl)s1 | 0.23 | 1.1 | 4.3 | 16 | 0.4 | 1.9 | 5.7 |  |  | 14 |  |  | 
CS(=O)(=O)c1cnc([N-]C(=O)c2ccccc2O)s1.[Na+] | 1.5 | 5.2 | 43 | 29 |  |  |  |  |  |  |  |  | 
O=C(Nc1ncc(F)s1)c1ccccc1O | > 10 | > 10 | 24 |  | > 10 | > 10 | 2.9 |  |  |  |  |  | 
O=C(Nc1ncc(Br)s1)c1ccccc1O | 4.9 | 10 | 20 | 20 | 2.8 | 9.4 | 88 |  |  | 31.4 |  |  | 
O=C(Nc1cc(C(F)(F)F)ccc1Cl)c1ccccc1O | 0.01 | 0.03 | 0.33 | 65.2 |  |  |  |  |  |  |  |  | 
CC(=O)Oc1ccccc1C(=O)Nc1ncc([N+](=O)[O-])s1 [NITAZOXANIDE] | 0.21 | 0.93 | 35 | 143 | 0.33 | 1.1 | 49 |  |  | 149 |  |  | 
O=C(Nc1ncc(Br)s1)c1cccc(Cl)c1O | > 5.2 | > 10 | 10 | 2.7 | > 10 | > 10 | 11 |  |  |  |  |  | 
CC(=O)Oc1ccc(C)cc1C(=O)Nc1ncc(Br)s1 | 3 | 7.8 | 10 | 3.3 | 3 | 8.6 | 11 |  |  | 3.7 |  |  | 
O=C(Nc1cccc(F)c1)c1ccccc1O | 0.13 | 0.83 | 3.4 | 26 |  |  |  |  |  |  |  |  | 
O=C(Nc1ccc([N+](=O)[O-])cc1Cl)c1cc(Cl)ccc1O [NICLOSAMIDE] | 0.16 | 0.7 | 10 | 16.2 |  |  |  |  |  |  | soluble |  | 
Cc1cnc(NC(=O)c2ccccc2O)s1 | 4.2 | 14 | 45 | 11 |  |  |  |  |  |  |  |  | 
O=C(Nc1ncc([N+](=O)[O-])s1)c1cc(Cl)ccc1O | 2 | 5.9 | > 100 | >50 |  |  |  |  |  |  |  |  | 
O=C(Nc1nc(-c2ccccc2)cs1)c1ccccc1O | > 3.5 | ≥ 10 | 14 | 7.4 | > 10 | > 10 | 29 |  |  |  |  |  | 
O=C(Nc1nc(-c2ccccc2)c(Br)s1)c1ccccc1O | > 2.2 | > 7 | 16 | 7.3 | > 10 | > 10 | 62 |  |  |  |  |  | 

Compound | EC50 (Hepatitis C virus [1]) [µM] | EC90 (Hepatitis C virus [1]) [µM] | CC50 at 72 h [2] [µM] | Ratio CC50/EC50 [3] | EC50 (Hepatitis C virus [4]) [µM] | EC90 (Hepatitis C virus [4]) [µM] | CC50 at 72 h [5] [µM] | MTD [6] [mg/kg] | Activity (Rattus norvegicus) | Ratio CC50/EC50 [7] | solubility [8] | Drug metabolism (Canis familiaris [9]) | Drug metabolism (Canis familiaris [10])
CC(=O)Oc1c(C)cccc1C(=O)Nc1ncc(Cl)s1 | 0.59 | 8.9 | 12 | 11 | 1 | 3.8 | 14 |  |  | 14 |  |  | 
O=C(Nc1ncc([N+](=O)[O-])s1)c1ccccc1O [TIZOXANIDE] | 0.15 | 0.81 | 15 | 100 | 0.25 | 1 | 14 |  |  | 56 |  |  | 
C[S+]([O-])c1csc(NC(=O)c2ccccc2O)n1 (stereo unspecified) | 2 | 4.6 | 63 | 32 |  |  |  |  |  |  |  |  | 
Cc1ccc(C(=O)Nc2ncc(Cl)s2)c(O)c1 | > 10 | > 10 | 30 |  |  |  |  |  |  |  |  |  | 
CC(=O)Oc1ccccc1C(=O)Nc1nc(C(F)(F)F)cs1 | > 10 | > 10 | 2.8 |  |  |  |  |  |  |  | soluble |  | 
O=C(Nc1ccccc1Cl)c1ccccc1O | 3.8 | 21 | 72 | 19 |  |  |  |  |  |  |  |  | 
O=C(Nc1ncc(Cl)s1)c1ccccc1O | 10 | 10 | 15 |  |  |  |  |  |  |  |  |  | 
Cc1ccc(O)c(C(=O)Nc2ncc(Cl)s2)c1 | > 10 | > 10 | 2.3 |  | 10 | 10 | 16 |  |  |  |  | Active | Active
CC(=O)Oc1ccccc1C(=O)Nc1ncc(C(F)(F)F)s1 | > 4.3 | > 8.2 | 1.7 | 0.9 | > 10 | > 10 | 14 |  |  |  | soluble |  | 
CC(=O)Nc1cnc(NC(=O)c2ccccc2O)s1 | > 10 | > 10 | 11 |  |  |  |  |  |  |  |  |  | 
CS(=O)(=O)c1ccc(NC(=O)c2ccccc2O)cc1 | > 10 | > 10 | > 100 |  |  |  |  |  |  |  |  |  | 
CCOC(=O)c1cnc(NC(=O)c2ccccc2O)s1 | > 10 | > 10 | 14 |  |  |  |  |  |  |  |  |  | 
CC(=O)Oc1ccccc1C(=O)Nc1ccc(Br)cc1 | 0.45 | 3.4 | 0.6 | 1.3 |  |  |  |  |  |  |  |  | 
CC(=O)Oc1ccccc1C(=O)Nc1ncc(Br)s1 | 3.8 | 11 | 12 | 3 | 3.3 | 10 | 21 |  |  | 6 |  |  | 
CC(=O)Oc1ccccc1C(=O)Nc1cccc(F)c1 | 3.8 | 11 | > 100 | 26 |  |  |  |  |  |  |  |  | 
N#Cc1cnc(NC(=O)c2ccccc2O)s1 | > 10 | > 10 | 15 | 4.1 | > 10 | > 10 | 11 |  |  |  |  |  | 
O=C(Nc1cc(C(F)(F)F)cc(C(F)(F)F)c1)c1ccccc1O | 3.5 | 8.1 | 3.7 | 1.1 |  |  |  |  |  |  | soluble |  | 
